# Assay results taken from patent US20020099035A1, “Method for preparing alpha-sulfonyl hydroxamic acid derivatives” (priority 2001, published 2002).
# Counter-ions that a name gives are not always drawn.
# Key:
# [1] = target: T1, MMP1 (human recombinant fibroblast collagenase) (Homo sapiens, UniProt P03956); assay: In vitro collagenase assay (fluorogenic peptide substrate); type: biochemical; settings: read-out: MMP1 (1C50)
# T1 construct: human recombinant fibroblast collagenase (truncated, mw=18,828, WAR, Radnor)
# T1 sequence (P03956 100-269 limits assumed): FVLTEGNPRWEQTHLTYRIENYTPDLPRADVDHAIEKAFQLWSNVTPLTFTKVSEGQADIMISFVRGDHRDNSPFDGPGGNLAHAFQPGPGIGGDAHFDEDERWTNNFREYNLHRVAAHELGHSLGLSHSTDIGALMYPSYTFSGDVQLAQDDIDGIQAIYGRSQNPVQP
# Method: The assay is based on the cleavage of a peptide substrate ((Dnp-Pro-Cha-Gly-Cyns(Me)-His-Ala-Lys(NMa)-NH2), Peptide International, Inc.) by collagenase releasing the fluorescent NMa group which is quantitated on the fluorometer. Dnp quenches the NMa fluorescence in the intact substrate. The assay is run in HCBC assay buffer (50 mM HEPES, pH 7.0, 5 mM Ca^+2, 0.02% Brij, 0.5% Cysteine), with human recombinant fibroblast collagenase (truncated, mw=18,828, WAR, Radnor). Substrate is dissolved in methanol and stored frozen in 1 mM aliquots. Collagenase is stored frozen in buffer in 25 μM aliquots. For the assay, substrate is dissolved in HCBC buffer to a final concentration of 10 μM and collagenase to a final concentration of 5 nM. Compounds are dissolved in methanol, DMSO, or HCBC. The methanol and DMSO are diluted in HCBC to <1.0%. Compounds are added to the 96 well plate containing enzyme and the reaction is started by the addition of substrate.
# The reaction is read (excitation 340 nm, emission 444 nm) for 10 min. and the increase in fluorescence over time is plotted as a linear line. The slope of the line is calculated and represents the reaction rate.
# (§1) The linearity of the reaction rate is confirmed (r^2>0.85). The mean (x±sem) of the control rate is calculated and compared for statistical significance (p<0.05) with drug-treated rates using Dunnett's multiple comparison test. […]
# [2] = target: T2, TACE (Homo sapiens, UniProt P78536); assay: Procedure for measuring TACE inhibition (fluorescent peptidyl substrate); type: biochemical
# T2 construct: purchased Immunex
# Method: […] The reaction is initiated by addition of a fluorescent peptidyl substrate (final concentration 100 μM) to each well and then shaking on a shaker for 5 sec.
# The reaction is read (excitation 340 nm, emission 420 nm) for 10 min. and the increase in fluorescence over time is plotted as a linear line. The slope of the line is calculated and represents the reaction rate.
# The linearity of the reaction rate is confirmed (r^2>0.85). The mean (x±sem) of the control rate is calculated and compared for statistical significance (p<0.05) with drug-treated rates using Dunnett's multiple comparison test. Dose-response relationships can be generate using multiple doses of drug and IC50 values with 95% CI are estimated using linear regression.
# [3] = target: T3, MMP9 (human neutrophil gelatinase B) (Homo sapiens, UniProt P14780); assay: In vitro gelatinase assay (thiopeptide substrate, DTNB); type: biochemical
# T3 construct: from tissue; host or cells: human neutrophils
# Method: The assay is based on the cleavage of the thiopeptide substrate ((Ac-Pro-Leu-Gly(2 mercapto-4 methyl-pentanoyl)-Leu-Gly-OEt), Bachem Bioscience) by the enzyme, gelatinase, releasing the substrate product which reacts calorimetrically with DTNB ((5,5′-dithio-bis(2-nitro-benzoic acid)). The enzyme activity is measured by the rate of the color increase.
# The thiopeptide substrate is made up fresh as a 20 mM stock in 100% DMSO and the DTNB is dissolved in 100% DMSO as a 100 mM stock and stored in dark at room temperature. Both the substrate and DTNB are diluted together to 1 mM with substrate buffer (50 mM HEPES pH 7.5, 5 mM CaCl2) before use. The stock of human neutrophil gelatinase B is diluted with assay buffer (50 mM HEPES pH 7.5, 5 mM CaCl2, 0.02% Brij) to a final concentration of 0.15 nM. The assay buffer, enzyme, DTNB/substrate (500 μM final concentration) and vehicle or inhibitor are added to a 96 well plate (total reaction volume of 200 μl ) and the increase in color is monitored spectrophotometrically for 5 minutes at 405 nm on a plate reader.
# The increase in OD405 is plotted and the slope of the line is calculated which represents the reaction rate.
# as §1
# [4] = target: MMP13 (Homo sapiens, UniProt P45452); assay: MMP13 inhibition; type: biochemical
# T2 sequence (P78536 215-824): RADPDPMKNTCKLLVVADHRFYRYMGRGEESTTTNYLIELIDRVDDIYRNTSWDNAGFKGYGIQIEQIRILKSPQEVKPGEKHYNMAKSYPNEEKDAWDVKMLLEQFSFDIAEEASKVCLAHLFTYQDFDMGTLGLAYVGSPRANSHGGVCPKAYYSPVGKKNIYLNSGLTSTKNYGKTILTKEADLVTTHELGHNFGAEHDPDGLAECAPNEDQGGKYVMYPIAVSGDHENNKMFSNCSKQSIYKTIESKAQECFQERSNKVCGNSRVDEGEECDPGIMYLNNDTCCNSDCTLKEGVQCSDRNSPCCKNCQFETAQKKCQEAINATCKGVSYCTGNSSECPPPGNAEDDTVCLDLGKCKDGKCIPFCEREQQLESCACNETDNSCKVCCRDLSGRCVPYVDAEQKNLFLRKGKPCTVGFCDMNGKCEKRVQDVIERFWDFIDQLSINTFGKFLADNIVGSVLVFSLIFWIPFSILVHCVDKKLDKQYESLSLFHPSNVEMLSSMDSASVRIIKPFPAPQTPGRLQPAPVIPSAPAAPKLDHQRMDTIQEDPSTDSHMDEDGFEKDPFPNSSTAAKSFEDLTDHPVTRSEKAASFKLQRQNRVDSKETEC
# T3 sequence (P14780 94-707): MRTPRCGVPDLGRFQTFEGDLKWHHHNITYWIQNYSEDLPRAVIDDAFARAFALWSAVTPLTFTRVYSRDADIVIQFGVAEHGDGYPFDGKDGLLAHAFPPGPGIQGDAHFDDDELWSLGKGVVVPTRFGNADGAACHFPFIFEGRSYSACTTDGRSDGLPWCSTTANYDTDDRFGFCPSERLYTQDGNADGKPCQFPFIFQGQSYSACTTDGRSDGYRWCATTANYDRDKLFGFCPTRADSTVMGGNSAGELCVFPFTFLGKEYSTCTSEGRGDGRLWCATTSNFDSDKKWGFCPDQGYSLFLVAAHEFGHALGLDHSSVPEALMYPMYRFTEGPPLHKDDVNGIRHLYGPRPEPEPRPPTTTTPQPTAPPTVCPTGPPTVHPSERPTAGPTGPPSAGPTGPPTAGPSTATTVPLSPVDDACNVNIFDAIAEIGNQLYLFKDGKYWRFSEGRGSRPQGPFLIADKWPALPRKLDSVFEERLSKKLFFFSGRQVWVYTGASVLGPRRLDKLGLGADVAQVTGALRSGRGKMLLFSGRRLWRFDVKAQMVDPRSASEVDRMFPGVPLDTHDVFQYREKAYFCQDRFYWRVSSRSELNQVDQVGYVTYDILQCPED
IC50 [1],inhibition at 10 µM [2],IC50 [3],IC50 [4],melting point,Structure (SMILES)
1300 nM,54%,732 nM,140 nM,–,"COc1ccc(S(=O)(=O)C2(C(=O)NO)CCCN(Cc3ccccc3)C2)cc1 (centres unmarked) [Example 18, 1-Benzyl-3-(4-methoxybenzenesulfonyl)piperidine-3-carboxylic acid hydroxamide]"
–,–,–,–,132.9 °C,"COc1ccc(S(=O)(=O)C2(C(=O)NO)CCCN(Cc3ccccc3)C2)cc1 (centres unmarked) (as salt: hydrochloride) [Example 18, 1-Benzyl-3-(4-methoxybenzenesulfonyl)piperidine-3-carboxylic acid hydroxamide]"
